Source: US9708638B1, “Protease assay method using site-specific fluorescence dye labeled protein as substrate” (EZBiolab, priority 2014, dated 2017)

Tests used:
Format in all cases: biochemical
[1] = system: ADAM 17; experiment: Fluorescence polarization assay of cleavage of N-terminal FITC labeled pro-TNF-α by Adam 17; conditions: inhibitor at final concentration 10 uM; FIG. 3 Trace B
Procedure: (§1) Cleavage of N-terminal FITC labeled pro-TNF-α was performed by a fluorescence polarization assay. The assay was performed with a SpectraMax fluorescence plate reader in 96-well format. In a typical assay, 1 μM substrate protein was preincubated at 37° C. for 20 minutes. The reaction was initiated by addition of Adam 17 to the substrate solution. The final concentration of Adam 17 was 48 nM. The total reaction volume was […]. The reaction buffer was 50 mM Tris-HCl, pH 7.5, 2.5 μM ZnCl2, 0.005% Brij-35. In inhibition assays, the inhibitor was preincubated with its target protein for 30 minutes before reaction was initiated.
(§2) The concentration of product was calculated according to equation (1): [P]=(F[S]−Fs[S])/(Fp−Fs); where [P] is the concentration of product, F is the experimental recorded fluorescence polarization value, [S] is the total concentration of substrate and Fs and Fp are fluorescence polarization values of substrate and product, respectively. Fp is determined from a synthetic peptide with an identical sequence to the N-terminal fragment of the cleavage products.
(§3) To initiate the cleavage reaction, 1 ul ADAM 17 (0.1 mg/ml) stock solution may be added to 100 ul FITC-[pro-TNF-α] in 20 mM Tris-HCL, PH 8.5. The final concentration of FITC-[pro-TNF-α] is about 1 uM.

[2] = target: ADAM 17 (Homo sapiens, UniProt P78536); experiment: Cleavage of peptide substrate by Adam 17 (HPLC); conditions: HPLC results
Procedure: Cleavage of peptide substrates: Two peptide substrates were used in this study. PS1 is Mca-PLAQAV-Dpa-RSSSR-NH2 (22), a fluorescence resonance energy transfer based substrate, the activity was measured by fluorescence intensity change upon cleavage. PS2 may be the non-fluorescence version of PS1. For PS1, in a typical assay, 10 μM substrate was preincubated at 37° C. for 20 minutes. The reaction was initiated by addition of Adam 17 to the substrate solution at the final concentration of 16 nM. The total reaction volume may be 100 μl. The reaction buffer may be 50 mM Tris-HCl, pH 9.0, 2.5 μM ZnCl2, 0.005% Brij-35. In inhibition assays, inhibitor was preincubated with peptide substrate for 30 minutes. For PS2, reaction conditions were identical to PS1.
Referring to FIGS. 13 and 14, TNF-α Inhibitor is a small molecule that blocks interaction of TNF-α with its receptor by binding to TNF-α. This compound may affect the activity of Adam 17 to convert pro-TNF-α to TNF-α. Referring to FIG. 13, it is shown that at a concentration of about 200 μM, TNF-α inhibitor reduces the reaction rate by about 40%, which is validated by the electrophoresis assay results shown in FIG. 14. […] Based on the established direct binding between the compound and TNFα, it is believed that the inhibition effect is caused by the interaction of the compound to pro-TNFα.

[3] = target: ADAM 17 (Homo sapiens, UniProt P01375); experiment: Fluorescence polarization assay of cleavage of N-terminal FITC labeled pro-TNF-α by Adam 17
Procedure: as §1, §2, §3

[4] = target: T1, BACE (Homo sapiens, UniProt P56817); experiment: Fluorescence polarization assay of cleavage of APP365-699-[5-TAMRA] by BACE; conditions: inhibitor included in the cleavage reaction; FIG. 10 Trace B
T1 construct: made in house; host or cells: E. coli
From the text: Referring to FIGS. 9-11, in this example Beta-secretase (BACE) is one of the two proteases that cleave amyloid precursor protein (APP) to produce amyloid peptide 1-42. Human APP is a 733 residue protein. Full length of APP is consisted of several domains. BACE cleaves APP between residue 671 and 672. In this example, a fluorescence dye is specifically conjugated to the C-terminal end of APP365-699 that contains two independent folded domains. Gene encoding APP365-699 is fused to the N-terminal end of intein. After MESNA mediated self cleavage between APP365-699 and intein, a thioester group, is added to the C-terminal end of APP365-699. A fluorescence dye conjugated small peptide, CysGlySerLys-[5-TAMRA], is then ligated to the C-terminal end of APP365-699 to produce fluorescent dye labeled APP365-699:
As a result, fluorescence polarization of 5-TAMRA reduces. […] It proves that APP365-699-[5-TAMRA] may be used as a substrate for BACE activity assay by recording the fluorescence polarization. […] Thus, APP365-699-[5-TAMRA] may be used as a substrate for BACE activity assay by recording the fluorescence polarization and the assay may be used to identify its inhibitors.

[5] = target: T2, Renin (Homo sapiens, UniProt P00797); experiment: Fluorescence polarization assay of cleavage of FITC-angiotensinogen by Renin; conditions: inhibitor at final concentration 10 uM
T2 sequence (P00797 67-406): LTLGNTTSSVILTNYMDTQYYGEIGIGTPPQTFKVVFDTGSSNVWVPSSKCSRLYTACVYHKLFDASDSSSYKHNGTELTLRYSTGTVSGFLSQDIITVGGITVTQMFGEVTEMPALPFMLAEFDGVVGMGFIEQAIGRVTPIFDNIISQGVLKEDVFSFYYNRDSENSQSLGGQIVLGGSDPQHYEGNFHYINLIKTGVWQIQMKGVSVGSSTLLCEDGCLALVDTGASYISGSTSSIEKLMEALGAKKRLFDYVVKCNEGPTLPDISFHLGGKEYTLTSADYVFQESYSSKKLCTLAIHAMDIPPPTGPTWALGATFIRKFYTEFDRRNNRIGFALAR
Procedure: Cleavage of FITC-angiotensinogen by Renin produces two products: FITC-AAGCDRVYIHPFHL (FITC-angiotensin) and angiotensinogen protein. To initiate the cleavage reaction, 1 ul Renin (0.1 mg/ml) stock solution may be added to 100 ul FITC-angiotensinogen in 20 mM Tris-HCL, PH 8.5. The final concentration of FITC-angiotensingen may be about 1 uM. […] This confirms the specific cleavage of FITC-angiotensinogen by Renin.
An alternative strategy to label the full length angtensinogen is to delete 16 residues from the N-terminus of angtensinogen. This shorted angtensinogen has a Cys at its N-terminal end and is fused to sumo. Using the same protocol as described above, this fusion protein is expressed, purified and cleaved by Sumo protease to produce the N-terminal 16 residue deleted angtensinogen. Referring to FIG. 7, ligation of the N-terminal 16 residue deleted angtensinogen to the FITC-DRVYIHPFHLVIHNEST-thioester, a slightly different version of FITC-angiotensinogen is produced. […] Cleavage of this FITC-angiotensinogen by Renin may be measured by recording fluorescence polarization signal as a function of time, as shown in FIG. 8. […] This proves that the FITC-angiotensinogen may be used as a substrate for Renin activity assay by recording the fluorescence polarization and the assay may be used to identify its inhibitors.

Sequence of ADAM 17 (Homo sapiens, UniProt P01375) (P01375 with tags, fused parts or gaps): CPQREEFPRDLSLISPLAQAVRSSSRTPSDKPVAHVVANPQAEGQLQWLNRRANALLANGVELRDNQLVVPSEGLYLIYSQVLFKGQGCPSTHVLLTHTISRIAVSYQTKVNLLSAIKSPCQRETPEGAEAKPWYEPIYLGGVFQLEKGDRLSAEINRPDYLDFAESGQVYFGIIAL
Sequence of ADAM 17 (Homo sapiens, UniProt P78536) (P78536 215-824): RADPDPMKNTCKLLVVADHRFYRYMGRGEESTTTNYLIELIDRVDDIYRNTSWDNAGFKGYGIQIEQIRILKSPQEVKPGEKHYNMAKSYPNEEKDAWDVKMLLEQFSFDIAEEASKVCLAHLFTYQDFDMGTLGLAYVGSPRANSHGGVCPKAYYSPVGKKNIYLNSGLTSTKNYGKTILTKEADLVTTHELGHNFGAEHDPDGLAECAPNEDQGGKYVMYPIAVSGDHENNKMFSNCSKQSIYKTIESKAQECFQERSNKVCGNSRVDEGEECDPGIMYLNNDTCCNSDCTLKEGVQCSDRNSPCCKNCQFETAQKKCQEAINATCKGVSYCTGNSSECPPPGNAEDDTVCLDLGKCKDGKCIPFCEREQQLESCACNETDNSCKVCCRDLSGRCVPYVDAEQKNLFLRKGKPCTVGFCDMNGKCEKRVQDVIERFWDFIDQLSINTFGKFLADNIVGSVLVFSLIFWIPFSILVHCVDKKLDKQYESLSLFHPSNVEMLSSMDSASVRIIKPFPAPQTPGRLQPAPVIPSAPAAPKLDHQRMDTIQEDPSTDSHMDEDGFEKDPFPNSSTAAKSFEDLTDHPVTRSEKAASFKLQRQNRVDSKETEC
T1 sequence (P56817 46-501): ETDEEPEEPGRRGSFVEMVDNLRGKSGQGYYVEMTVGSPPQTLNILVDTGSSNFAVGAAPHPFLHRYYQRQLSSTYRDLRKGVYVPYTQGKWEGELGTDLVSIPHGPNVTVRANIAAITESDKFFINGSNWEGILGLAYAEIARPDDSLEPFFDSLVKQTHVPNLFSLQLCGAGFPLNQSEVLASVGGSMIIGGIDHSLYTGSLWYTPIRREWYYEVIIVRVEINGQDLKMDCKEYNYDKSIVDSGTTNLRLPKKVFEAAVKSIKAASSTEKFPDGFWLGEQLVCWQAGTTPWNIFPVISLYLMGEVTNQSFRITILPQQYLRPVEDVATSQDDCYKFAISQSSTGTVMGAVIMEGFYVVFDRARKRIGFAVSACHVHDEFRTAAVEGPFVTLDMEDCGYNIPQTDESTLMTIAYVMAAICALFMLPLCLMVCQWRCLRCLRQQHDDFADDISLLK

Compound: CNC(=O)[C@H](Cc1c[nH]c2ccccc12)NC(=O)[C@@H](CC(=O)NO)CC(C)C [N-[(2R)-2-(Hydroxamidocarbonylmethyl)-4-methylpentanoyl]-L-tryptophan methylamide]
- fluorescence polarization change during cleavage of FITC-[pro-TNF-α] by ADAM 17 [1]: little change

Compound: Cc1cc2occ(CN(C)CCN(C)Cc3cn(-c4cccc(C(F)(F)F)c4)c4ccccc34)c(=O)c2cc1C [TNF-α inhibitor, 6,7-Dimethyl-3-((methyl-(2-(methyl-(1-(3-trifluoromethyl-phenyl)-1H-indol-3-ylmethyl)-amino)-ethyl)-amino)-methyl)-chromen-4-one]
- cleavage activity of Adam 17 to the peptide substrate [2]: not affected
- cleavage rate of FITC-(pro-TNF-α) by ADAM 17 ([3]; 200 uM compound pre-incubated with FITC-(pro-TNF-α) for 30 minutes): reduced
- reduction of the reaction rate (conversion of pro-TNF-α to TNF-α by Adam 17) ([3]; inhibitor at about 200 μM, FIG. 13): about 40%

Compound: KTEEISEVN-Sta-VAEF
- fluorescence polarization during cleavage of APP365-699-[5-TAMRA] by BACE [4]: remains unchanged

Compound: RRPFH-Sta-IHK
- fluorescence polarization change during cleavage of FITC-angiotensinogen by Renin ([5]; FITC-angiotensinogen made from N-terminal 16 residue deleted angiotensinogen, FIG. 8 Trace B): little change
- fluorescence polarization change during cleavage of FITC-angiotensinogen by Renin ([5]; full length FITC-angiotensinogen, FIG. 6 Trace B): little change
